In one data set the target is T1, NTCP (Homo sapiens, UniProt Q14973).
T1 construct: host or cells: CHO cells
T1 sequence (Q14973 1-349): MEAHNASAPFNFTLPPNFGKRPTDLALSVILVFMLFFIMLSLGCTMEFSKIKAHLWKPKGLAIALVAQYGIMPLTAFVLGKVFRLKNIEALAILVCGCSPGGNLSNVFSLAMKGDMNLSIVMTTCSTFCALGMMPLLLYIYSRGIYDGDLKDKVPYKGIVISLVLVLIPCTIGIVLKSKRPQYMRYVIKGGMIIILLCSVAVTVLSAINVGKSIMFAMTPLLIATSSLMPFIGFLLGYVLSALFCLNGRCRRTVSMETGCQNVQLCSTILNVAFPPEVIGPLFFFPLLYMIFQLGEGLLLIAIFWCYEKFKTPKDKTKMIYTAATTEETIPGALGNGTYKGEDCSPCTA
Nature of the data set: NTCP uptake of tritium labeled TCA in CHO cells. The data set is classed as cell-based. To be noted: at 250 μmol/L.
From the text: […]

Data set [1] in a line: ADME of single oral dose of 14C-labeled parent in male rats. The data set is classed as in vivo, rat. To be noted: single oral dose (target 15 mg/kg) 14C-labeled. The source says: A summary of liver effects along with a detailed synopsis of each nonclinical study that was used to support the Investigational New Drug Application filing along with longer term studies can be found in the supplemental information associated with this article. In brief, this compound advanced into clinical studies without any histopathological evidence of liver injury or reproducible transaminase elevations in rats and monkeys. The addition of total bile acid analysis in nonclinical safety assessment studies, although germane to this investigation retrospectively, is not routine.26 Absorption, distribution, metabolism, and excretion of parent and metabolites were examined in albino and pigmented male rats after administration of a single oral dose (target 15 mg/kg) of ^14C‐labeled parent. Elimination of radioactivity occurred mostly within the first 24 hours after dosing with approximately 71 and 22% of the administered dose excreted in feces and urine, respectively. An equivalent human study was not performed.

A further data set concerns Sprague-Dawley rats. Briefly: Preliminary 7-Day Oral Toxicity Study in Rats. Type of data set: in vivo. Particulars: for gross pathology: animals with impacted feces / microscopic changes in liver (and kidneys): 7 days; for gross pathology: animals with impacted feces: 10 M per group; for microscopic changes in liver (and kidneys): high-dose animals (300 mg/kg); for ALT: once daily for 7 days, 10 to 300 mg/kg/day PO.

Molecules are shown by their SMILES.

Broadly, the inhibition is the change of the read-out against control, counted positive when it falls.

In turn, `O=C(Cc1ccc(F)cc1)Nn1c(C2CC2)nc2cc(F)ccc2c1=O` [PF‐04895162, N‐(2‐cyclopropyl‐7‐fluoro‐4‐oxoquinazolin‐3(4H)‐yl)‐2‐(4‐fluorophenyl)ethanamide] had an inhibition at 250 µM on NTCP of 30%. Besides, the “administered dose excreted in feces” value in data set [1] is given as “approximately 71%”. Further, in data set [1], the “administered dose excreted in urine” value is recorded as approximately 22%. Moreover, the figures for the “gross pathology: animals with impacted feces” value with Sprague-Dawley rats (100 mg/kg) and with Sprague-Dawley rats (300 mg/kg) were 1 and 6, respectively. Besides, the body temperature result in the data set with Sprague-Dawley rats (30, 100, and 300 mg/kg on Day 1 and 300 mg/kg on Day 7) is reported as “decreased”. In addition, in the data set with Sprague-Dawley rats (Days 3, 5, and 7 at 30, 100, and 300 mg/kg), the Body weight gain entry is on record as “suppressed”. Also, the clinical signs entry with Sprague-Dawley rats (early in the study, primarily at 300 mg/kg) is “tremor, splayed stance, altered gait, piloerection, and mild tremors”. The “microscopic changes in liver (and kidneys)” value in the data set with Sprague-Dawley rats is “no microscopic changes in the liver or kidneys”; in the data set with Sprague-Dawley rats (listed as PF-04895162), “no microscopic changes in the liver”. The figures for the ALT result in the data set with Sprague-Dawley rats and in the data set on Sprague-Dawley rats (listed as ICA-105665) were “dose-dependent increases in ALT” and “increased in a dose-dependent manner”, respectively.

For the origin of these results see publication PMC6370995, “Phase I study of PF‐04895162, a Kv7 channel opener, reveals unexpected hepatotoxicity in healthy subjects, but not rats or monkeys: clinical evidence of disrupted bile acid homeostasis” (Pharmacology Research & Perspectives, 2019).
